Measured values as given in the NIST ThermoML archive (doi:10.1021/je1009224).
Numbers after ± are expanded uncertainties.

Tests used:
[1] = 101.3 kPa, Liquid
[2] = xn = mol fraction of the nth substance listed; conditions: 101 kPa, Liquid

Q: With `CCCCCC[n+]1ccn(C)c1.O=S(=O)([N-]S(=O)(=O)C(F)(F)F)C(F)(F)F` as the compound, how does the viscosity ([1]; 283.1 K) read?
A: 136 ± 11 mPa·s

Q: And the viscosity ([1]; 298.15 K)?
A: 70.1 ± 2.5 mPa·s

Q: What about the viscosity ([1]; 323.15 K) of the same compound?
A: 25.8 ± 0.8 mPa·s

Q: What about the viscosity ([1]; 348.15 K) of the same compound?
A: 13.5 ± 0.5 mPa·s

Q: For `CCCCCC[n+]1ccn(C)c1.O=S(=O)([N-]S(=O)(=O)C(F)(F)F)C(F)(F)F` + C=CCCCCCC, which viscosity ([2]; 283.1 K, x2 = 0) is on record?
A: 136 ± 11 mPa·s

Q: What about the viscosity ([2]; 298.15 K, x2 = 0) of the same compound?
A: 70.1 ± 2.5 mPa·s

Q: What about the viscosity ([2]; 323.15 K, x2 = 0) of the same compound?
A: 25.8 ± 0.8 mPa·s

Q: And the viscosity ([2]; 348.15 K, x2 = 0)?
A: 13.5 ± 0.5 mPa·s

Q: For `C=CCCCCCC` [oct-1-ene], which viscosity ([1]; 283.1 K) is on record?
A: 0.56 ± 0.03 mPa·s

Q: And the viscosity ([1]; 298.15 K)?
A: 0.47 ± 0.03 mPa·s

Q: What about the viscosity ([1]; 323.15 K) of the same compound?
A: 0.37 ± 0.03 mPa·s

Q: And the viscosity ([1]; 348.15 K)?
A: 0.3 ± 0.03 mPa·s

Q: For `C=CCCCCCC` [oct-1-ene] + CCCCCC[n+]1ccn(C)c1.O=S(=O)([N-]S(=O)(=O)C(F)(F)F)C(F)(F)F, which viscosity ([2]; 283.1 K, x1 = 0.05) is on record?
A: 127 ± 10 mPa·s

Q: And the viscosity ([2]; 283.1 K, x1 = 0.1)?
A: 106 ± 7 mPa·s

Q: And the viscosity ([2]; 283.1 K, x1 = 0.15)?
A: 93 ± 5 mPa·s

Q: What about the viscosity ([2]; 283.1 K, x1 = 1) of the same compound?
A: 0.56 ± 0.03 mPa·s

Q: And the viscosity ([2]; 298.15 K, x1 = 0.05)?
A: 66.6 ± 2.1 mPa·s

Q: And the viscosity ([2]; 298.15 K, x1 = 0.1)?
A: 56.2 ± 1.9 mPa·s

Q: What about the viscosity ([2]; 298.15 K, x1 = 0.15) of the same compound?
A: 51.2 ± 1.3 mPa·s

Q: What about the viscosity ([2]; 298.15 K, x1 = 1) of the same compound?
A: 0.47 ± 0.03 mPa·s

Q: What about the viscosity ([2]; 323.15 K, x1 = 0.05) of the same compound?
A: 24.4 ± 0.8 mPa·s

Q: And the viscosity ([2]; 323.15 K, x1 = 0.1)?
A: 21.6 ± 0.7 mPa·s

Q: And the viscosity ([2]; 323.15 K, x1 = 0.15)?
A: 20.5 ± 0.7 mPa·s

Q: And the viscosity ([2]; 323.15 K, x1 = 1)?
A: 0.37 ± 0.03 mPa·s

Q: And the viscosity ([2]; 348.15 K, x1 = 0.05)?
A: 13 ± 0.5 mPa·s

Q: What about the viscosity ([2]; 348.15 K, x1 = 0.1) of the same compound?
A: 11.6 ± 0.5 mPa·s

Q: And the viscosity ([2]; 348.15 K, x1 = 0.15)?
A: 11.4 ± 0.5 mPa·s

Q: And the viscosity ([2]; 348.15 K, x1 = 1)?
A: 0.3 ± 0.03 mPa·s
